Legend:
Test in all cases: RBC kinase panel
Type in all cases: biochemical
Conditions in all cases: ATP 10 μM, Data1, Data2
[1] = target: T1, CDK16/cyclin Y (PCTAIRE) (Homo sapiens, UniProt Q00536)
T1 construct: purchased Reaction Biology Corporation
Outline: (§1)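 In this selectivity screen, one compound concentration (1 μM) was applied to 369 human kinases, with duplicates and 10 μM ATP in each reaction.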

[2] = target: T2, CDK19/cyclin C (Homo sapiens, UniProt Q9BWU1)
T2 construct: purchased Reaction Biology Corporation
Outline: as §1

[3] = target: T3, MLCK2/MYLK2 (Homo sapiens, UniProt Q9H1R3)
T3 construct: purchased Reaction Biology Corporation
Outline: as §1

[4] = target: T4, MST4 (Homo sapiens, UniProt Q9P289)
T4 construct: purchased Reaction Biology Corporation
Outline: as §1

[5] = target: T5, CSK (Homo sapiens, UniProt P41240)
T5 construct: purchased Reaction Biology Corporation
Outline: as §1

[6] = target: T6, MST2/STK3 (Homo sapiens, UniProt Q13188)
T6 construct: purchased Reaction Biology Corporation
T6 sequence (Q13188 whole entry): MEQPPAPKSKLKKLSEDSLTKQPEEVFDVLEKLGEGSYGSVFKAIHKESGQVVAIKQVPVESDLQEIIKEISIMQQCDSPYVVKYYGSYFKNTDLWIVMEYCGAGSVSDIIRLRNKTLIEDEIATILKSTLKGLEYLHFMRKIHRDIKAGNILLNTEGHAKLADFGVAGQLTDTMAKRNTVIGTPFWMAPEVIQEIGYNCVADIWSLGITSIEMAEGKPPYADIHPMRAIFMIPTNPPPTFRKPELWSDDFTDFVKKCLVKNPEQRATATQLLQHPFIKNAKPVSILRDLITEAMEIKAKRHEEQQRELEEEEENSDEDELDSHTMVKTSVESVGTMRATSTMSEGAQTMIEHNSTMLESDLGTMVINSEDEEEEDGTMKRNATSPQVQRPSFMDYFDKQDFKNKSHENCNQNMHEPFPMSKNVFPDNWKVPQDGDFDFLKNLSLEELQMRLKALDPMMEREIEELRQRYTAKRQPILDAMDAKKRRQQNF
Outline: as §1

[7] = target: T7, SGK3/SGKL (Homo sapiens, UniProt Q96BR1)
T7 construct: purchased Reaction Biology Corporation
Outline: as §1

[8] = target: T8, FGFR2 (Homo sapiens, UniProt P21802)
T8 construct: purchased Reaction Biology Corporation
T8 sequence (P21802 22-821): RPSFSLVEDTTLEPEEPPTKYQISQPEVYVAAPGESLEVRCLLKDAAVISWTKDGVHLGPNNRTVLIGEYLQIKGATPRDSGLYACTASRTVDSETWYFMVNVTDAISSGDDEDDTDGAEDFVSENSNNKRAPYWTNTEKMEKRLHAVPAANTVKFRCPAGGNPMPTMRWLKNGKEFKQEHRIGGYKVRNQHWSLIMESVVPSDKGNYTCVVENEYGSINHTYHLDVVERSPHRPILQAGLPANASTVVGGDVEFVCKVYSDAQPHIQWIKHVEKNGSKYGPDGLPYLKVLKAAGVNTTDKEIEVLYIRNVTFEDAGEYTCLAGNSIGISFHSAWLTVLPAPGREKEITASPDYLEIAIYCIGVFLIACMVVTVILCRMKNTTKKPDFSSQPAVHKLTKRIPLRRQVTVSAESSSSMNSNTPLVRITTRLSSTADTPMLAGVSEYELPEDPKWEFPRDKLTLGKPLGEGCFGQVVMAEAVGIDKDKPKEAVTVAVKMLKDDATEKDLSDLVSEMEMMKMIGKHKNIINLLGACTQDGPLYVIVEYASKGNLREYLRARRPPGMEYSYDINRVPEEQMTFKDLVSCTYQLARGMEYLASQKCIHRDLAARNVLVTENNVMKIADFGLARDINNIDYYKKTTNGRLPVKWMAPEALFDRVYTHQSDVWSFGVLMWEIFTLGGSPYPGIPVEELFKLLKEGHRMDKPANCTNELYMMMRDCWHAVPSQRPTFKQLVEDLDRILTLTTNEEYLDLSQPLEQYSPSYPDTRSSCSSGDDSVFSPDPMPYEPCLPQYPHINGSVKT
Outline: as §1

[9] = target: T9, KDR/VEGFR2 (Homo sapiens, UniProt P35968)
T9 construct: purchased Reaction Biology Corporation
Outline: as §1

[10] = target: T10, RSK4 (Homo sapiens, UniProt Q9UK32)
T10 construct: purchased Reaction Biology Corporation
Outline: as §1

[11] = target: T11, STK21/CIT (Homo sapiens, UniProt O14578)
T11 construct: purchased Reaction Biology Corporation
Outline: as §1

[12] = target: T12, BRK (Homo sapiens, UniProt Q13882)
T12 construct: purchased Reaction Biology Corporation
Outline: as §1

[13] = target: T13, EPHA1 (Homo sapiens, UniProt P21709)
T13 construct: purchased Reaction Biology Corporation
Outline: as §1

[14] = target: T14, GCK/MAP4K2 (Homo sapiens, UniProt Q12851)
T14 construct: purchased Reaction Biology Corporation
Outline: as §1

[15] = target: T15, RSK3 (Homo sapiens, UniProt Q15349)
T15 construct: purchased Reaction Biology Corporation
Outline: as §1

[16] = target: T16, PLK3 (Homo sapiens, UniProt Q9H4B4)
T16 construct: purchased Reaction Biology Corporation
Outline: as §1

[17] = target: T17, CAMK1g (Homo sapiens, UniProt Q96NX5)
T17 construct: purchased Reaction Biology Corporation
T17 sequence (Q96NX5 whole entry): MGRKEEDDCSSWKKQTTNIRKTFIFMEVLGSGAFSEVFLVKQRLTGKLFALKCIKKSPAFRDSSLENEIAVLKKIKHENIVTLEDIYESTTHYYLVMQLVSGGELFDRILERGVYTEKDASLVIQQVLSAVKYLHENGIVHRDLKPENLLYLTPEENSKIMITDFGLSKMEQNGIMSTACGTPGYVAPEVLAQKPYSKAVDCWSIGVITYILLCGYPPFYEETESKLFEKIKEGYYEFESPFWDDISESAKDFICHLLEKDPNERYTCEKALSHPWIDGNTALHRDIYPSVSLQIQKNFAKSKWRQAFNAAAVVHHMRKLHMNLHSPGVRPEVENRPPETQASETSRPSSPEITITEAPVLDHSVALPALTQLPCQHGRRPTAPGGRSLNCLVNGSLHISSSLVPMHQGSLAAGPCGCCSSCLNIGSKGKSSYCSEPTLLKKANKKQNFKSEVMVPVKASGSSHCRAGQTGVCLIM
Outline: as §1

[18] = target: T18, STK16 (Homo sapiens, UniProt O75716)
T18 construct: purchased Reaction Biology Corporation
Outline: as §1

[19] = target: T19, PLK4/SAK (Homo sapiens, UniProt O00444)
T19 construct: purchased Reaction Biology Corporation
Outline: as §1

[20] = target: T20, GSK3a (Homo sapiens, UniProt P49840)
T20 construct: purchased Reaction Biology Corporation
Outline: as §1

[21] = target: T21, NIM1 (Homo sapiens, UniProt Q8IY84)
T21 construct: purchased Reaction Biology Corporation
T21 sequence (Q8IY84 whole entry): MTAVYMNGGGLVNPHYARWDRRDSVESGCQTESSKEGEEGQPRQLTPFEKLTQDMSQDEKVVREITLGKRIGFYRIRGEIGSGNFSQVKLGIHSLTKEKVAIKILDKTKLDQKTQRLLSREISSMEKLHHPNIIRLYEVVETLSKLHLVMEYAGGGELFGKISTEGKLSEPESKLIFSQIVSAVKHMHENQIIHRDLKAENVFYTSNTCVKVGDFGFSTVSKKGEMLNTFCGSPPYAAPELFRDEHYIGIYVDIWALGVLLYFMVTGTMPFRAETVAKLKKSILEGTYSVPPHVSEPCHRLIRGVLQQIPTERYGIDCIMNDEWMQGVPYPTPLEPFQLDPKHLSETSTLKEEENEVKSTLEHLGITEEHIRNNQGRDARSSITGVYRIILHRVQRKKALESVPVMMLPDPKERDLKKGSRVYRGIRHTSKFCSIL
Outline: as §1

[22] = target: T22, TTBK2 (Homo sapiens, UniProt Q6IQ55)
T22 construct: purchased Reaction Biology Corporation
Outline: as §1

[23] = target: T23, MUSK (Homo sapiens, UniProt O15146)
T23 construct: purchased Reaction Biology Corporation
T23 sequence (O15146 24-869): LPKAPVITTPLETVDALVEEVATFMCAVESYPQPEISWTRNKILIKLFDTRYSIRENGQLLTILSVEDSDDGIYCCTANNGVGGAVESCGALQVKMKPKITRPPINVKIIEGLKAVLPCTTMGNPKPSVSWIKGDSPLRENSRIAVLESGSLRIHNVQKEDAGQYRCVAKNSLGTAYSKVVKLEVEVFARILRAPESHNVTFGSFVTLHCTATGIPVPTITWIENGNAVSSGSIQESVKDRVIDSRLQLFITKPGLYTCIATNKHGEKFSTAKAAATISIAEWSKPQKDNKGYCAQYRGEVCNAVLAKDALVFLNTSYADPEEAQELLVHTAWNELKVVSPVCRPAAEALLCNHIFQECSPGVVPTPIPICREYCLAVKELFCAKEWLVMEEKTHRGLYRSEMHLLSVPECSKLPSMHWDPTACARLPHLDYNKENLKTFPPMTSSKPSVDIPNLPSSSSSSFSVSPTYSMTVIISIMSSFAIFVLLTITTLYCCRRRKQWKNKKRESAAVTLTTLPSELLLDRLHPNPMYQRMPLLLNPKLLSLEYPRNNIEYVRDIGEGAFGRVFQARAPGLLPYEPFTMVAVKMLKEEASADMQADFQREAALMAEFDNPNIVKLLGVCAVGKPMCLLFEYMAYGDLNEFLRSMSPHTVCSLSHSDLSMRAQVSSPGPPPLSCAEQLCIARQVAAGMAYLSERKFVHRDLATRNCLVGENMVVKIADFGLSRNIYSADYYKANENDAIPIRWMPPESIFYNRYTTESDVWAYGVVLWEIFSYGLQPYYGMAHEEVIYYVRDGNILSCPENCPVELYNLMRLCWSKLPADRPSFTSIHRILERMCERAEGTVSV
Outline: as §1

[24] = target: T24, SLK/STK2 (Homo sapiens, UniProt Q9H2G2)
T24 construct: purchased Reaction Biology Corporation
Outline: as §1

[25] = target: T25, PKCa (Homo sapiens, UniProt P17252)
T25 construct: purchased Reaction Biology Corporation
Outline: as §1

[26] = target: T26, MAPKAPK3 (Homo sapiens, UniProt Q16644)
T26 construct: purchased Reaction Biology Corporation
T26 sequence (Q16644 whole entry): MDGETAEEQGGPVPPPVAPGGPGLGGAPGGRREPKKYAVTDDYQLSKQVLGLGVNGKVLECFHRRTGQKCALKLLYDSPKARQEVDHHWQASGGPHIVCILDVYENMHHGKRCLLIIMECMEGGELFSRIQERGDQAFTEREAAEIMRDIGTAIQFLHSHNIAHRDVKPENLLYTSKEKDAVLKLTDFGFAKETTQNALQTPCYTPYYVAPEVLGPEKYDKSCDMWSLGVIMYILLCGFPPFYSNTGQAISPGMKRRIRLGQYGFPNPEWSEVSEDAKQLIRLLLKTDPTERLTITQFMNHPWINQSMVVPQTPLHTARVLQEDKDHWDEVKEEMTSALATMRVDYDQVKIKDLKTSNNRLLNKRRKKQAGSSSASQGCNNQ
Outline: as §1

[27] = target: T27, DAPK1 (Homo sapiens, UniProt P53355)
T27 construct: purchased Reaction Biology Corporation
Outline: as §1

[28] = target: T28, DMPK (Homo sapiens, UniProt Q09013)
T28 construct: purchased Reaction Biology Corporation
T28 sequence (Q09013 whole entry): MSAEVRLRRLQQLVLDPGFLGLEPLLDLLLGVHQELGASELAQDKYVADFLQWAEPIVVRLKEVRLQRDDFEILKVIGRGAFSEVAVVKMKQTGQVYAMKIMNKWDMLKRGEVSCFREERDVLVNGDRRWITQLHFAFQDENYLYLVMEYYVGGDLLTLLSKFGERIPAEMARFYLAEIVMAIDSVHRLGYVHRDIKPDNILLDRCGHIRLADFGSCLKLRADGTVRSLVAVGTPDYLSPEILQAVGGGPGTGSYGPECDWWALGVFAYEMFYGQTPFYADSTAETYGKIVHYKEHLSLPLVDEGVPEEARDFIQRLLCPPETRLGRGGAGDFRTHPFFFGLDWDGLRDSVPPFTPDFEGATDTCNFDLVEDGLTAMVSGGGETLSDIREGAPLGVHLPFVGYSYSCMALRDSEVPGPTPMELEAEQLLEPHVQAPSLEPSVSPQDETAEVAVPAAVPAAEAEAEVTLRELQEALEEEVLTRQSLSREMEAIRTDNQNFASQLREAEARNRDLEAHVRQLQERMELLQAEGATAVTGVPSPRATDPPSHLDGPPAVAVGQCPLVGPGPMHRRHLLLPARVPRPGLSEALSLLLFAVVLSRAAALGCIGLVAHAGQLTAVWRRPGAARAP
Outline: as §1

[29] = target: T29, ROS/ROS1 (Homo sapiens, UniProt P08922)
T29 construct: purchased Reaction Biology Corporation
Outline: as §1

[30] = target: T30, EPHA7 (Homo sapiens, UniProt Q15375)
T30 construct: purchased Reaction Biology Corporation
T30 sequence (Q15375 28-998): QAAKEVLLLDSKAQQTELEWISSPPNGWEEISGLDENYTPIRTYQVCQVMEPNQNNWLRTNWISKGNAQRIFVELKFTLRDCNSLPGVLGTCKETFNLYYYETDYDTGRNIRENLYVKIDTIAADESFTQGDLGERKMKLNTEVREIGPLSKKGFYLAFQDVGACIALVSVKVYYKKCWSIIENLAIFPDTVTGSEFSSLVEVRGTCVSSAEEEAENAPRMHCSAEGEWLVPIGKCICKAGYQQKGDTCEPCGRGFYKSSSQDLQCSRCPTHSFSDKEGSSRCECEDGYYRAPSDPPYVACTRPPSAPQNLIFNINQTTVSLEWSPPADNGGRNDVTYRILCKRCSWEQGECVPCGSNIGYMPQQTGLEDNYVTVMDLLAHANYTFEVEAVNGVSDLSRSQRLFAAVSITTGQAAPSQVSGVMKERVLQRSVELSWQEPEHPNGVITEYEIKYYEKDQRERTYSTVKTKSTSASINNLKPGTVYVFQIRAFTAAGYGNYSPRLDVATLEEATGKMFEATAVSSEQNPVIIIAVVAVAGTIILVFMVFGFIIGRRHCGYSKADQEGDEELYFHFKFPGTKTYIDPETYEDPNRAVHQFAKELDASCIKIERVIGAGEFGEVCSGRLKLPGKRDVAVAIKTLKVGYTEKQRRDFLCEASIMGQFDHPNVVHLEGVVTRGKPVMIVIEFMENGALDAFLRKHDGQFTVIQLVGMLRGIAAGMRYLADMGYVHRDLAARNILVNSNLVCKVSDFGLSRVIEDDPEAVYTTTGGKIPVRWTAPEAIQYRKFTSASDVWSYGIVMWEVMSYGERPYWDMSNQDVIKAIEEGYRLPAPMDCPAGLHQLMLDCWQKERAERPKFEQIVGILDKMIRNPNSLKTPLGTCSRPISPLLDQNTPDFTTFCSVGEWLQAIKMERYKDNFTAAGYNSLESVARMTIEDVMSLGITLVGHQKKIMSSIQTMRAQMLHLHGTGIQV
Outline: as §1

[31] = target: T31, TBK1 (Homo sapiens, UniProt Q9UHD2)
T31 construct: purchased Reaction Biology Corporation
Outline: as §1

[32] = target: T32, TTBK1 (Homo sapiens, UniProt Q5TCY1)
T32 construct: purchased Reaction Biology Corporation
Outline: as §1

[33] = target: T33, DYRK3 (Homo sapiens, UniProt O43781)
T33 construct: purchased Reaction Biology Corporation
Outline: as §1

CC(=O)Nc1nc2ccc(-c3cnc(C)c(NC(=O)OC4CCCCC4)c3)cc2s1 [PK68, cyclohexyl (5-(2-acetamidobenzo[d]thiazol-6-yl)-2-methylpyridin-3-yl)carbamate] gave an Activity% ([1]; 1 μM) of 96.14%, an activity at 1 µM [1] of 99.2% and an Activity% ([2]; 1 μM) of 99.34%. The activity at 1 µM [2] was 101%, the Activity% ([3]; 1 μM) was 50.92% and the activity at 1 µM [3] was 51.3%. For the same molecule, the Activity% ([4]; 1 μM) was 101.18%, the activity at 1 µM [4] was 102% and the Activity% ([5]; 1 μM) was 91.36%. The activity at 1 µM [5] was 92.8%, the Activity% ([6]; 1 μM) was 109.16% and the activity at 1 µM [6] was 109%. For the same molecule, the Activity% ([7]; 1 μM) was 99.59%, the activity at 1 µM [7] was 102% and the Activity% ([8]; 1 μM) was 88.90%. For the same molecule, the activity at 1 µM [8] was 91%, the Activity% ([9]; 1 μM) was 88.68% and the activity at 1 µM [9] was 90.3%. For the same molecule, the Activity% ([10]; 1 μM) was 103.68%, the activity at 1 µM [10] was 105% and the Activity% ([11]; 1 μM) was 121.90%. It also gave an activity at 1 µM [11] of 125%, an Activity% ([12]; 1 μM) of 96.14% and an activity at 1 µM [12] of 97.5%. It also gave an Activity% ([13]; 1 μM) of 100.48%, an activity at 1 µM [13] of 101% and an Activity% ([14]; 1 μM) of 96.82%. It also gave an activity at 1 µM [14] of 97.6%, an Activity% ([15]; 1 μM) of 96.49% and an activity at 1 µM [15] of 97.6%. It also gave an Activity% ([16]; 1 μM) of 104.01%, an activity at 1 µM [16] of 105% and an Activity% ([17]; 1 μM) of 92.94%. For the same molecule, the activity at 1 µM [17] was 93%, the Activity% ([18]; 1 μM) was 85.85% and the activity at 1 µM [18] was 88.2%. For the same molecule, the Activity% ([19]; 1 μM) was 89.27%, the activity at 1 µM [19] was 91.8% and the Activity% ([20]; 1 μM) was 101.33%. It also gave an activity at 1 µM [20] of 102%, an Activity% ([21]; 1 μM) of 96.79% and an activity at 1 µM [21] of 97.5%. It also gave an Activity% ([22]; 1 μM) of 98.08%, an activity at 1 µM [22] of 98.4% and an Activity% ([23]; 1 μM) of 70.88%. It also gave an activity at 1 µM [23] of 75.9%, an Activity% ([24]; 1 μM) of 91.29% and an activity at 1 µM [24] of 91.9%. It also gave an Activity% ([25]; 1 μM) of 98.94%, an activity at 1 µM [25] of 99.5% and an Activity% ([26]; 1 μM) of 100.67%. It also gave an activity at 1 µM [26] of 102%, an Activity% ([27]; 1 μM) of 87.16% and an activity at 1 µM [27] of 88.5%. It also gave an Activity% ([28]; 1 μM) of 100.30%, an activity at 1 µM [28] of 101% and an Activity% ([29]; 1 μM) of 88.56%. For the same molecule, the activity at 1 µM [29] was 88.9%, the Activity% ([30]; 1 μM) was 85.80% and the activity at 1 µM [30] was 86.9%. For the same molecule, the Activity% ([31]; 1 μM) was 96.55%, the activity at 1 µM [31] was 97% and the Activity% ([32]; 1 μM) was 107.17%. For the same molecule, the activity at 1 µM [32] was 110%, the Activity% ([33]; 1 μM) was 81.73% and the activity at 1 µM [33] was 83%.

From publication PMC6591251, “Discovery of potent necroptosis inhibitors targeting RIPK1 kinase activity for the treatment of inflammatory disorder and cancer metastasis” (Cell Death & Disease, 2019)
